# Laboratory results reported in patent publication US11767323B2, “Tricyclic pyridone compounds as JAK2 V617F inhibitors” (Incyte Corporation, priority 2020, dated 2023).
# Columns and labels:
# [1] = molecular target: pseudo-kinase domain (JH2, amino-acids 536-812) of human V617F mutant JAK2 (Homo sapiens (Human), UniProt O60674, F794H/V617F/W659A/W777A); assay: JAK2 LanthaScreen JH2-V617F Binding Assay; conditions: JAK2 JH2-V617F 0.26 nM, 50 nM tracer, 1 hour at 25° C.; read-out: JH2 BIND V617F IC50
# Experimental: Example C. JAK2 LanthaScreen JH2-V617F Binding Assay
# (§1) JAK2 JH2-V617F binding assay utilizes pseudo-kinase domain (JH2, amino-acids 536-812 with 3 surface mutations W659A, W777A, F794H) of human V617F mutant JAK2 expressed as C-terminal His-Avi-tagged, biotinylated protein in a baculovirus expression system (BPS Bioscience, Catalog #79498). The assay was conducted in black 384-well polystyrene plates in a final reaction volume of 20 μL. JAK2 JH2-V617F (0.26 nM) was incubated with compounds (100 nL serially diluted in DMSO) in the presence of 50 nM Fluorescent JAK2-JH2 Tracer (MedChem Express Catalog #HY-102055) and 0.25 nM Streptavidin-Tb cryptate (Cisbio Part #610SATLB) in assay buffer (50 mM Tris, pH=7.5, 10 mM MgCl2, 0.01% Brij-35, 0.1% BSA, 1 mM EGTA, 5% Glycerol and 5 mM DTT). Non-specific binding was accessed in the presence of 2 mM ATP. After incubation for 1 hour at 25° C., LanthaScreen signals were read on a PHERAstar FS plate reader (BMG LABTECH). Data was analyzed with IDBS XLfit and GraphPad Prism 5.0 software using a four parameter dose response curve to determine IC50 for each compound.
# [2] = molecular target: catalytic domain (JH1, amino acids 808-1132) of human JAK2 (Homo sapiens (Human), UniProt O60674); assay: JAK2 HTRF Enzyme Activity Assay; format: biochemical; conditions: JAK2 0.015 nM, ATP (30 μM or 1 mM), 60 minutes at 25° C.
# Experimental: Example D. JAK2 HTRF Enzyme Activity Assay
# JAK2 enzyme activity assays utilize catalytic domain (JH1, amino acids 808-1132) of human JAK2 expressed as N-terminal His-tagged protein in a baculovirus expression system (BPS Bioscience, Catalog #40450). The assays was conducted in black 384-well polystyrene plates in a final reaction volume of 20 μL. JAK2 (0.015 nM) was incubated with compounds (100 nL serially diluted in DMSO) in the presence of ATP (30 μM or 1 mM) and 500 nM Biotin-labeled EQEDEPEGDYFEWLE (SEQ ID NO.: 1) peptide (BioSource International, custom synthesis) in assay buffer (50 mM Tris, pH=7.5, 10 mM MgCl2, 0.01% Brij-35, 0.1% BSA, 1 mM EGTA, 5% Glycerol and 5 mM DTT) for 60 minutes at 25° C. The reactions were stopped by the addition of 10 μL of detection buffer (50 mM Tris, pH 7.8, 0.5 mg/mL BSA, 150 mM NaCl), supplemented with EDTA, LANCE Eu-W1024 anti-phosphotyrosine (PY20), (PerkinElmer, Catalog #AD0067) and Streptavidin SureLight APC (PerkinElmer Catalog #CR130-100), for a final concentration of 15 mM, 1.5 nM and 75 nM, respectively. HTRF signals were read after 30 minutes incubation at room temperature on a PHERAstar FS plate reader (BMG LAB TECH). Data was analyzed with IDBS XLfit and GraphPad Prism 5.0 software using a four parameter dose response curve to determine IC50 for each compound.
# [3] = molecular target: catalytic domain (JH1, amino acids 826-1132) of human JAK2 (Homo sapiens (Human), UniProt O60674); assay: JAK2 LanthaScreen JH1 Binding Assay; conditions: JAK2 JH1 1.5 nM, 50 nM tracer, 2 hours at 25° C.; read-out: JH1 BIND IC50
# Experimental: Example A. JAK2 LanthaScreen JH1 Binding Assay
# JAK2 JH1 binding assay utilizes catalytic domain (JH1, amino acids 826-1132) of human JAK2 expressed as N-terminal FLAG-tagged, biotinylated protein in a baculovirus expression system (Carna Biosciences, Product #08-445-20N). The assay was conducted in black 384-well polystyrene plates in a final reaction volume of 20 μL. JAK2 JH1 (1.5 nM) was incubated with compounds (100 nL serially diluted in DMSO) in the presence of 50 nM Fluorescent JAK2-JH1 Tracer and 0.5 nM Streptavidin-Tb cryptate (Cisbio Part #610SATLB) in assay buffer (50 mM Tris, pH=7.5, 10 mM MgCl2, 0.01% Brij-35, 0.1% BSA, 1 mM EGTA, 5% Glycerol and 5 mM DTT). Non-specific binding was accessed in the presence of 2 mM ATP. After incubation for 2 hours at 25° C., LanthaScreen signals were read on a PHERAstar FS plate reader (BMG LABTECH). Data was analyzed with IDBS XLfit and GraphPad Prism 5.0 software using a four parameter dose response curve to determine IC50 for each compound.
# [4] = molecular target: pseudo-kinase domain (JH2, amino-acids 536-812) of human Wild Type JAK2 (Homo sapiens (Human), UniProt O60674, F794H/W659A/W777A); assay: JAK2 LanthaScreen JH2-WT Binding Assay; conditions: JAK2 JH2-WT 0.145 nM, 50 nM tracer, 1 hour at 25° C.; read-out: JH2 BIND WT IC50
# Experimental: Example B. JAK2 LanthaScreen JH2-WT Binding Assay
# as §1, with “JH2-WT” for “JH2-V617F”, “Wild Type” for “V617F mutant”, “#79463).” for “#79498).”, “JH2-WT (0.145” for “JH2-V617F (0.26”, “LAB TECH).” for “LABTECH).”
# Sequence of pseudo-kinase domain (JH2, amino-acids 536-812) of human V617F mutant JAK2 (O60674 536-812 V617F/W659A/W777A/F794H): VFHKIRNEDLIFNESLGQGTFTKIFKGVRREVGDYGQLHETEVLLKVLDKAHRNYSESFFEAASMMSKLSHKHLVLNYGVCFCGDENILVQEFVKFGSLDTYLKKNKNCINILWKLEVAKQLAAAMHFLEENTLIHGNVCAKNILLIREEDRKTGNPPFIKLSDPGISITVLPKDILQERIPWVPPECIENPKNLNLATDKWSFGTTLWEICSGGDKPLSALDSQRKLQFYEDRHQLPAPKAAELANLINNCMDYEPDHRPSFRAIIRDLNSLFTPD
# Sequence of catalytic domain (JH1, amino acids 808-1132) of human JAK2 (O60674 808-1132): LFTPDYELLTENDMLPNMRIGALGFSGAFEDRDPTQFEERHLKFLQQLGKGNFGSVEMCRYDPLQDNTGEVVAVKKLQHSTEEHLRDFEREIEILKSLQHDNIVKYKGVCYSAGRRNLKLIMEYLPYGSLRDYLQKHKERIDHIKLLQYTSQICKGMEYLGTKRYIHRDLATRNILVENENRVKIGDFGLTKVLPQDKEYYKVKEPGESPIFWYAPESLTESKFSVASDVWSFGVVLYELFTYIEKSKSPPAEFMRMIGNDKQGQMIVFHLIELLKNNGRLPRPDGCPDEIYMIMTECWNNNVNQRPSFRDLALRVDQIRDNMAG
# Sequence of catalytic domain (JH1, amino acids 826-1132) of human JAK2 (O60674 826-1132): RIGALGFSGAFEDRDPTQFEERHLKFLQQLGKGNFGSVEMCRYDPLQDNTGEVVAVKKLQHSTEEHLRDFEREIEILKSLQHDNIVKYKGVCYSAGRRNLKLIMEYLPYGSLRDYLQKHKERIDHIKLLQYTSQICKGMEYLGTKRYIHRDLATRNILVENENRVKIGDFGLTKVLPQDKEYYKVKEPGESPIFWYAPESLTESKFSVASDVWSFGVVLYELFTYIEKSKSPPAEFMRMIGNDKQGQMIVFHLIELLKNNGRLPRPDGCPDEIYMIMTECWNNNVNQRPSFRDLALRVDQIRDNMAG
# Sequence of pseudo-kinase domain (JH2, amino-acids 536-812) of human Wild Type JAK2 (O60674 536-812 W659A/W777A/F794H): as the sequence (O60674 536-812 V617F/W659A/W777A/F794H) above, with F82V counted along it
Structure (SMILES),IC50 [1] [nM],IC50 [2] [nM],IC50 [3] [nM],IC50 [4] [nM]
"CN(C)C(=O)c1cc2c3c(-c4ccc(C5(C#N)CC5)cc4)c(-c4cnn(C)c4)[nH]c3ncc2n(C)c1=O [Example 44, 1-(4-(1-cyanocyclopropyl)phenyl)-N,N,6-trimethyl-2-(1-methyl-1H-pyrazol-4-yl)-7-oxo-6,7-dihydro-3H-pyrrolo[3,2-f][1,7]naphthyridine-8-carboxamide]",≤ 100,1000 to 10000,1000 to 10000,≤ 100
"Cc1cc(-c2c(-c3ccc(C(=O)Nc4ccc5oc(C)nc5c4)cc3)c3c4cc(-c5cnn(C)c5)[nH]c4ncc3n(C)c2=O)on1 [Example 26, 4-(6-Methyl-2-(1-methyl-1H-pyrazol-4-yl)-8-(3-methylisoxazol-5-yl)-7-oxo-6,7-dihydro-3H-pyrrolo[3,2-f][1,7]naphthyridin-9-yl)-A-(2-methylbenzo[d]oxazol-5-yl)benzamide]",≤ 100,100 to 500,100 to 500,≤ 100
"COCc1ccc(-c2c(-c3cc(C)no3)c(=O)n(C)c3cnc4[nH]c(-c5cnn(C)c5)cc4c23)cc1 [Example 27, 9-(4-(Methoxymethyl)phenyl)-6-methyl-2-(1-methyl-1H-pyrazol-4-yl)-8-(3-methylisoxazol-5-yl)-3,6-dihydro-7H-pyrrolo[3,2-f][1,7]naphthyridin-7-one]",≤ 100,100 to 500,100 to 500,≤ 100
"Cc1c(-c2ccc([N+](=O)[O-])cc2)c(=O)[nH]c2cnc3[nH]c(-c4ccc(CN5CCC(S(C)(=O)=O)CC5)cc4)cc3c12 [Example 18, 9-Methyl-2-(4-((4-(methylsulfonyl)piperidin-1-yl)methyl)phenyl)-8-(4-nitrophenyl)-3,6-dihydro-7H-pyrrolo[3,2-f][1,7]naphthyridin-7-one]",1000 to 10000,1000 to 10000,1000 to 10000,500 to 1000
"Cc1cc(-c2c(-c3ccccc3)c3c4cc(-c5cnn(C)c5)[nH]c4ncc3n(C)c2=O)on1 [Example 23, 6-methyl-2-(1-methyl-1H-pyrazol-4-yl)-8-(3-methylisoxazol-5-yl)-9-phenyl-3,6-dihydro-7H-pyrrolo[3,2-f][1,7]naphthyridin-7-one]",≤ 100,100 to 500,100 to 500,≤ 100
"CS(=O)(=O)C1CCN(Cc2ccc(-c3cc4c(ncc5[nH]c(=O)c(-c6nnn[nH]6)cc54)[nH]3)cc2)CC1 [Example 5, 2-(4-((4-(Methylsulfonyl)piperidin-1-yl)methyl)phenyl)-8-(1H-tetrazol-5-yl)-3,6-dihydro-7H-pyrrolo[3,2-f][1,7]naphthyridin-7-one]",1000 to 10000,1000 to 10000,> 10000,500 to 1000
"COC1CCC(c2c(-c3cc(C)no3)c(=O)n(C)c3cnc4[nH]c(-c5cnn(C)c5)cc4c23)CC1 (stereo not drawn) [Example 22, 9-(4-Methoxycyclohexyl)-6-methyl-2-(1-methyl-1H-pyrazol-4-yl)-8-(3-methylisoxazol-5-yl)-3,6-dihydro-7H-pyrrolo[3,2-f][1,7]naphthyridin-7-one]",≤ 100,100 to 500,100 to 500,≤ 100
"Cc1ccc(-c2c(C)c3c4cc(-c5ccc(CN6CCC(S(C)(=O)=O)CC6)cc5)[nH]c4ncc3n(C)c2=O)cc1 [Example 9, 6,9-Dimethyl-2-(4-((4-(methylsulfonyl)piperidin-1-yl)methyl)phenyl)-8-(p-tolyl)-3,6-dihydro-7H-pyrrolo[3,2-f][1,7]naphthyridin-7-one]",≤ 100,≤ 100,≤ 100,≤ 100
"Cc1cc(-c2c(-c3ccc(-c4cnn(C)c4CO)cc3)c3c4cc(-c5cnn(C)c5)[nH]c4ncc3n(C)c2=O)on1 [Example 32, 9-(4-(5-(Hydroxymethyl)-1-methyl-1H-pyrazol-4-yl)phenyl)-6-methyl-2-(1-methyl-1H-pyrazol-4-yl)-8-(3-methylisoxazol-5-yl)-3,6-dihydro-7H-pyrrolo[3,2-f][1,7]naphthyridin-7-one]",≤ 100,100 to 500,100 to 500,≤ 100
"Cc1c(-c2ccc(-n3cnnn3)cc2)c(=O)[nH]c2cnc3[nH]c(-c4ccc(CN5CCC(S(C)(=O)=O)CC5)cc4)cc3c12 [Example 7, 8-(4-(1H-Tetrazol-1-yl)phenyl)-9-methyl-2-(4-((4-(methylsulfonyl)piperidin-1-yl)methyl)phenyl)-3,6-dihydro-7H-pyrrolo[3,2-f][1,7]naphthyridin-7-one]",1000 to 10000,1000 to 10000,1000 to 10000,100 to 500
"CS(=O)(=O)C1CCN(Cc2ccc(-c3cc4c(ncc5[nH]c(=O)c(-c6ccccc6)cc54)[nH]3)cc2)CC1 [Example 1, 2-(4-((4-(Methylsulfonyl)piperidin-1-yl)methyl)phenyl)-8-phenyl-3,6-dihydro-7H-pyrrolo[3,2-f][1,7]naphthyridin-7-one]",1000 to 10000,> 10000,1000 to 10000,1000 to 10000
"CN(C)C(=O)c1ccc(-c2c(-c3cnn(C)c3)[nH]c3ncc4c(cc(Nc5ccc(Cc6nnn[nH]6)cc5)c(=O)n4C)c23)cc1 [Example 35, 4-(8-((4-((1H-tetrazol-5-yl)methyl)phenyl)amino)-6-methyl-2-(1-methyl-1H-pyrazol-4-yl)-7-oxo-6,7-dihydro-3H-pyrrolo[3,2-f][1,7]naphthyridin-1-yl)-N,N-dimethylbenzamide]",≤ 100,≤ 100,≤ 100,≤ 100
